No end group written: not given here.
Tests used:
Experiment in all cases: biochemical
Format in all cases: binding
[1] = target: HLA-A*0201 (HLA-A2.1) (Homo sapiens, UniProt P04439, D140Y/D185E/D98H/E176V/E277Q/G131W/G231S/I119V/I121R/I166T/I218V/L300P/L318F/N151K/N90K/P208A/P217A/Q86G/Q94H/R138H/R169H/T345S)
[2] = target: A*0203 (Homo sapiens, UniProt P04439, A173T/D140Y/D185E/D98H/E277Q/G131W/G231S/I119V/I121R/I166T/I218V/L180W/L300P/L318F/N151K/N90K/P208A/P217A/Q86G/Q94H/R138H/R169H/T345S)
[3] = target: A*0206 (Homo sapiens, UniProt P04439, D140Y/D185E/D98H/E176V/E277Q/F33Y/G131W/G231S/I119V/I121R/I166T/I218V/L300P/L318F/N151K/N90K/P208A/P217A/Q86G/Q94H/R138H/R169H/T345S)
[4] = target: A*6802 (Homo sapiens, UniProt P04439, A269V/D140Y/D185E/E176V/E277Q/E87N/F33Y/G231S/I121R/I166T/I218V/L180W/L300P/L318F/N151K/P208A/P217A/Q86R/R138H/R169H/S129P/T345S/V36M)
[5] = target: A*0202 (Homo sapiens, UniProt P04439, D140Y/D185E/D98H/E176V/E277Q/G131W/G231S/I119L/I121R/I166T/I218V/L180W/L300P/L318F/N151K/N90K/P208A/P217A/Q67R/Q86G/Q94H/R138H/R169H/T345S)

Row | Compound | IC50 [1] [µM] | IC50 [2] [µM] | IC50 [3] [µM] | IC50 [4] [µM] | IC50 [5] [µM]
1 | CSCC[C@H](NC(=O)[C@@H](N)CCCNC(=N)N)C(=O)N1CCC[C@H]1C(=O)N[C@@H](CCC(=O)O)C(=O)N[C@@H](C)C(=O)N[C@@H](C)C(=O)N1CCC[C@H]1C(=O)N1CCC[C@H]1C(=O)N[C@H](C(=O)N[C@H](C(=O)O)C(C)C)C(C)C [Peptide 1317.29] | 0.055 | 0.0063 | 0.259 | > 20 | 0.062
2 | CC(C)C[C@H](NC(=O)[C@@H](N)CCCNC(=N)N)C(=O)N1CCC[C@H]1C(=O)N[C@@H](CCC(=O)O)C(=O)N[C@@H](C)C(=O)N[C@@H](C)C(=O)N1CCC[C@H]1C(=O)N1CCC[C@H]1C(=O)N[C@H](C(=O)N[C@H](C(=O)O)C(C)C)C(C)C [Peptide 1323.17] | 0.152 | 0.018 | 0.24 | > 20 | 0.032
3 | CSCC[C@H](NC(=O)[C@H](C)N)C(=O)N[C@@H](CS)C(=O)N[C@@H](CCCNC(=N)N)C(=O)N[C@@H](Cc1c[nH]c2ccccc12)C(=O)NCC(=O)N[C@@H](CC(C)C)C(=O)N[C@@H](CC(C)C)C(=O)N[C@H](C(=O)O)C(C)C [Peptide 1334.07] | 0.051 | 1.57 | 2.11 | 3.9 | 9.28
4 | CC[C@H](C)[C@H](NC(=O)CNC(=O)[C@@H](NC(=O)[C@@H](NC(=O)[C@H](C)NC(=O)CN)[C@@H](C)O)C(C)C)C(=O)N[C@@H](CCSC)C(=O)N[C@H](C(=O)NCC(=O)N[C@H](C(=O)N[C@H](C(=O)O)C(C)C)C(C)C)[C@@H](C)CC [Peptide 9013.0342] | > 20 | 0.341 | 4.53 | 0.671 | 7.52
5 | CC[C@H](C)[C@H](N)C(=O)N[C@@H](CCSC)C(=O)N[C@H](C(=O)NCC(=O)N[C@H](C(=O)N[C@@H](CC(C)C)C(=O)N[C@H](C(=O)NCC(=O)N[C@H](C(=O)N[C@@H](C)C(=O)N[C@H](C(=O)O)C(C)C)C(C)C)C(C)C)C(C)C)[C@@H](C)CC [Peptide 9013.0346] | 0.075 | 0.055 | 0.061 | 9 | 0.018
6 | ALAEAMSQA [Peptide 1539.04] | 0.015 | 0.02 | 0.017 | 3.02 | 0.0019
7 | ALAFTCEPET [Peptide 9013.0156] | > 20 | 0.279 | 7.96 | > 20 | 0.206
8 | ALFNVQEGV [Peptide 1578.41] | 0.064 | 0.0052 | 0.045 | 0.914 | 0.002
9 | ALNTTYLWWV [Peptide 9013.0217] | 0.223 | 0.0056 | 0.578 | 7.7 | 0.048
10 | ALYSWFVNGT [Peptide 9013.0173] | 0.661 | 0.0036 | 0.875 | > 20 | 0.0089
11 | ALYWFRTAM [Peptide 86.0195] | 1.48 | 0.214 | 13.9 | > 20 | 0.017
12 | ALYWYKTGI [Peptide 86.0176] | 0.665 | 0.053 | 4.12 | 3.29 | 0.021
13 | ALYWYRTGI [Peptide 86.0181] | 0.555 | 0.064 | 4.64 | 4.85 | 0.024
14 | ALYWYRTGL [Peptide 1578.30] | 5.07 | 0.023 | 11.5 | > 20 | 0.0082
15 | ALYWYRTGM [Peptide 86.0189] | 1.6 | 0.057 | 15.6 | > 20 | 0.013
16 | AVAFTCEPEV [Peptide 9013.0155] | 7.86 | 0.054 | 0.199 | 13.4 | 0.233
17 | CLAHNSDTGL [Peptide 9013.0191] | 13.5 | 0.039 | > 20 | > 20 | 0.013
18 | CQAHNSDTGV [Peptide 9013.0190] | > 20 | 0.466 | 1.56 | > 20 | 0.339
19 | EVFIPNITV [Peptide 9013.0062] | > 20 | > 20 | 4.26 | 0.004 | > 20
20 | EVLLLVHNV [Peptide 9013.0021] | 3.03 | 6.6 | 0.107 | 0.003 | 6.24
21 | EVQNTTYLWWV [Peptide 9013.0326] | > 20 | 19.6 | > 20 | 0.034 | > 20
22 | FIQGAVISFV [Peptide 1578.12] | 0.255 | 0.018 | 0.345 | 0.394 | 0.012
23 | FLGALKSFV [Peptide 1593.56] | 0.093 | 0.0011 | 0.079 | 0.822 | 0.0011
24 | FLQGAIISFV [Peptide 1578.27] | 0.045 | 0.0066 | 0.069 | 0.086 | 0.00065

Row | Compound | IC50 [1] [µM] | IC50 [2] [µM] | IC50 [3] [µM] | IC50 [4] [µM] | IC50 [5] [µM]
25 | FLQGSVICFV [Peptide 1578.05] | 0.041 | 0.0091 | 0.073 | 0.38 | 0.0035
26 | FLQSTQELFI [Peptide 9013.0179] | 0.095 | 0.059 | 1.11 | > 20 | 0.0037
27 | FLSALKLFL [Peptide 1578.17] | 0.017 | 0.011 | 0.045 | 2.15 | 0.0028
28 | FLSGCVISYV [Peptide 1578.32] | 0.043 | 0.0074 | 0.067 | 0.102 | 0.0027
29 | ILQHTQELFI [Peptide 9013.0212] | – | 0.594 | > 20 | > 20 | 0.049
30 | ILYAHIQCL [Peptide 1578.08] | – | 0.01 | 0.42 | 16.4 | 0.0094
31 | ITIGVLVGV [Peptide 9013.0109] | – | 0.016 | 0.055 | 0.009 | 0.043
32 | LTNTGLYNL [Peptide 1481.17] | – | 4.99 | 1.83 | 1.58 | 0.02
33 | NLAEGKEVLL [Peptide 9013.0134] | – | 2.03 | 16.9 | > 20 | 0.0092
34 | QLHTQVLFI [Peptide 9013.0103] | – | 0.039 | 5.52 | > 20 | 0.022
35 | QLSNGNRTLTV [Peptide 9013.0334] | – | 0.363 | > 20 | > 20 | 0.02
36 | RILQQLLFT [Peptide 1525.13] | – | 5.25 | 0.491 | > 20 | 5.69
37 | RLTVKTITVSA [Peptide 9013.0319] | – | 0.091 | 1.36 | 0.27 | 0.401
38 | RQIIGYVIGV [Peptide 9013.0139] | – | 0.02 | 0.047 | 0.027 | 0.0074
39 | RVYVCGIQNSV [Peptide 9013.0336] | – | 0.0036 | 0.305 | 6.32 | 0.00022
40 | SLLTFWNPPTV [Peptide 9013.0256] | – | 0.054 | 0.536 | 2.27 | 0.054
41 | SLQELFIPNI [Peptide 9013.0182] | – | 0.035 | 0.066 | 7.46 | 0.015
42 | TLGIMIGVLV [Peptide 9013.0251] | – | 0.197 | 2.24 | 1.78 | 0.087
43 | VLGEAMSQA [Peptide 1539.08] | – | 0.022 | 1.09 | > 20 | 0.021
44 | VQWAFDNEV [Peptide 86.0209] | – | 4.52 | 0.031 | > 20 | 1.5
45 | WLNNQSLPV [Peptide 9013.0070] | – | 0.0043 | 0.978 | 0.197 | 0.0013
46 | WQRLLLTASLV [Peptide 9013.0253] | – | 0.019 | 0.496 | > 20 | 0.246
47 | YLIGTQQAT [Peptide 9013.0025] | – | 0.018 | 5.52 | 8.24 | 0.0026
48 | YTYYRPGVNV [Peptide 9013.0208] | – | 0.0029 | 0.075 | 0.007 | 0.0056

Source: US9340577B2, “HLA binding motifs and peptides and their uses” (priority 1992, dated 2016)
